The source of these data is ChEMBL document CHEMBL4196233, “Ribosome-Templated Azide-Alkyne Cycloadditions Using Resistant Bacteria as Reaction Vessels: in Cellulo Click Chemistry” (2018).

In brackets after ≈: the same amount, converted by molar mass.

This test deals with Staphylococcus aureus. Kind of test: Antimicrobial activity against Staphylococcus aureus UCN18 measured after 18 hrs. In kind it is functional. The conditions noted are these: UCN18, 18 h.
`CC[C@H]1OC(=O)[C@@](C)(F)C(=O)[C@H](C)[C@@H](O[C@@H]2O[C@H](C)C[C@H](N(C)C)[C@H]2O)[C@](C)(OC)C[C@@H](C)C(=O)[C@H](C)[C@H]2N(CCCCn3cc(COc4ccc(OC)cc4)nn3)C(=O)O[C@]12C` returned an MIC of 16 µg/mL (≈ 18 µM).

`CC[C@H]1OC(=O)[C@@](C)(F)C(=O)[C@H](C)[C@@H](O[C@@H]2O[C@H](C)C[C@H](N(C)C)[C@H]2O)[C@](C)(OC)C[C@@H](C)C(=O)[C@H](C)[C@H]2N(CCCCN=[N+]=[N-])C(=O)O[C@]12C` came in with an MIC of 256 µg/mL (≈ 352 µM).

Take `CC[C@H]1OC(=O)[C@@](C)(F)C(=O)[C@H](C)[C@@H](O[C@@H]2O[C@H](C)C[C@H](N(C)C)[C@H]2O)[C@](C)(OC)C[C@@H](C)C(=O)[C@H](C)[C@H]2N(CCCCn3cc(-c4cccc(C(F)(F)F)c4)nn3)C(=O)O[C@]12C`: the MIC was found to be 32 µg/mL (≈ 35.6 µM).

On to `CC[C@H]1OC(=O)[C@@](C)(F)C(=O)[C@H](C)[C@@H](O[C@@H]2O[C@H](C)C[C@H](N(C)C)[C@H]2O)[C@](C)(OC)C[C@@H](C)C(=O)[C@H](C)[C@H]2N(CCCCn3cc(-c4cccc(O)c4)nn3)C(=O)O[C@]12C`, for which it took 8 µg/mL (≈ 9.46 µM) to inhibit growth (MIC).

As for `CC[C@H]1OC(=O)[C@@](C)(F)C(=O)[C@H](C)[C@@H](O[C@@H]2O[C@H](C)C[C@H](N(C)C)[C@H]2O)[C@](C)(OC)C[C@@H](C)C(=O)[C@H](C)[C@H]2N(CCCCn3cc(COc4ccccc4)nn3)C(=O)O[C@]12C`, the MIC stood at 4 µg/mL (≈ 4.65 µM).

`CC[C@H]1OC(=O)[C@@](C)(F)C(=O)[C@H](C)[C@@H](O[C@@H]2O[C@H](C)C[C@H](N(C)C)[C@H]2O)[C@](C)(OC)C[C@@H](C)C(=O)[C@H](C)[C@H]2N(CCCCn3cc(C(O)(CC)CC)nn3)C(=O)O[C@]12C`: the minimum inhibitory concentration (MIC) came to 128 µg/mL (≈ 152 µM).

Consider `CC[C@H]1OC(=O)[C@@](C)(F)C(=O)[C@H](C)[C@@H](O[C@@H]2O[C@H](C)C[C@H](N(C)C)[C@H]2O)[C@](C)(OC)C[C@@H](C)C(=O)[C@H](C)[C@H]2N(CCCCn3cc(-c4ccc(OC)cc4)nn3)C(=O)O[C@]12C`, for which 32 µg/mL (≈ 37.2 µM) was the least that counted as inhibitory (MIC).

`CC[C@H]1OC(=O)[C@@](C)(F)C(=O)[C@H](C)[C@@H](O[C@@H]2O[C@H](C)C[C@H](N(C)C)[C@H]2O)[C@](C)(OC)C[C@@H](C)C(=O)[C@H](C)[C@H]2N(CCCCn3cc(-c4cccc(N)c4)nn3)C(=O)O[C@]12C` [SOLITHROMYCIN] returned a minimal inhibitory concentration (MIC) of 2 µg/mL (≈ 2.37 µM).

As for `CC[C@H]1OC(=O)[C@@](C)(F)C(=O)[C@H](C)[C@@H](O[C@@H]2O[C@H](C)C[C@H](N(C)C)[C@H]2O)[C@](C)(OC)C[C@@H](C)C(=O)[C@H](C)[C@H]2N(CCCCn3cc(-c4cccnc4)nn3)C(=O)O[C@]12C`, the MIC came out at 16 µg/mL (≈ 19.3 µM).

On to `CC[C@H]1OC(=O)[C@@](C)(F)C(=O)[C@H](C)[C@@H](O[C@@H]2O[C@H](C)C[C@H](N(C)C)[C@H]2O)[C@](C)(OC)C[C@@H](C)C(=O)[C@H](C)[C@H]2N(CCCCn3cc(CN4CCNCC4)nn3)C(=O)O[C@]12C`, for which the MIC was found to be 128 µg/mL (≈ 150 µM).

Regarding `CC[C@H]1OC(=O)[C@@](C)(F)C(=O)[C@H](C)[C@@H](O[C@@H]2O[C@H](C)C[C@H](N(C)C)[C@H]2O)[C@](C)(OC)C[C@@H](C)C(=O)[C@H](C)[C@H]2N(CCCCn3cc(-c4ccc(N(C)C)cc4)nn3)C(=O)O[C@]12C`, the minimum inhibitory concentration (MIC) was 32 µg/mL (≈ 36.7 µM).

Compound `CC[C@H]1OC(=O)[C@@](C)(F)C(=O)[C@H](C)[C@@H](O[C@@H]2O[C@H](C)C[C@H](N(C)C)[C@H]2O)[C@](C)(OC)C[C@@H](C)C(=O)[C@H](C)[C@H]2N(CCCCn3cc(-c4ccccc4F)nn3)C(=O)O[C@]12C` came in with an MIC of 8 µg/mL (≈ 9.43 µM).
